Data taken from US4540692A, “Anti-inflammatory N-(1-oxo-2,4,6-cycloheptatrienyl)2H-1,2-benzothiazine-3-carboxamide 1,1-dioxide derivatives, compositions, and method of use” (Fujisawa Pharmaceutical Co., Ltd., priority 1983, dated 1985).

Test system: carrageenin edema
Assay: Carrageenin edema test
Format: in vivo, Sprague-Dawley rats
Details: rat hind paw, 10 mg/kg oral, 60 minutes prior to carrageenin (0.1 ml, 1%); edema weight 3 hours after injection
Method: Five Sprague-Dawley rats were fasted for 24 hours and submitted to the study. First, 0.1 ml of carrageenin (1%) was subcutaneously injected into the paw of the right hind limb and after 3 hours the rat was sacrificed. The untreated limb and the edematous limb were respectively incised off at the junction of the tibia and weighed. The difference in weight between the edematous limb and the untreated limb was taken as the weight of the edema.
The test compound was orally administered 60 minutes prior to the administration of carrageenin and the swelling in the treated limb was compared with that in the control limb. The test compound was administered in a dose of 10 mg/kg.

`CN1C(C(=O)Nc2cccccc2=O)=C(O)c2ccccc2S1(=O)=O` [Example 1, 4-hydroxy-2-methyl-N-(1-oxo-2,4,6-cycloheptatrien-2-yl)-2H-1,2-benzothiazine-3-carboxamide 1,1-dioxide] was tested, and the “% Inhibition of carrageenin edema” value was 51.4%.
